Results from patent US6362216B1, “Compounds which inhibit tryptase activity” (Array Biopharma Inc., priority 1998, dated 2002).

Legend:
Human plasma plasmin = target: T1, Human plasma plasmin (Homo sapiens, UniProt P00747); assay: Human plasma plasmin inhibition, Tosyl-Gly-Pro-Lys-pNA substrate; type: biochemical; settings: 100 mM Tris-HCl, pH 7.4, 100 mM NaCl, 0.05% Triton X-100
T1 construct: from tissue; host or cells: human plasma
Experimental: (§1) Protease inhibition was assayed according to published procedures with minor modifications using various proteases and specific chromogenic peptide p-nitroanilide substrates. Assays were performed in Costar ultra-low cluster 96-well microtiter plate (Costar Corning Corp., Cambridge Mass.). Each protease was incubated with various concentrations of the test compound for 15 min. at 37° C. or as otherwise indicated, in specific assay buffer, and the residual activity was then measured by addition of the substrate. p-Nitroaniline produced by the proteolysis was determined by measuring the change in absorbance at 405 nm on a SpectraMAX 340 plate reader (Molecular devices, Sunnyvale, Calif.).
1. The inhibition constant, Ki is calculated from individual data points using the equation for a tight-binding inhibitor (See Beith, “Proteinase Inhibitors-Proceedings of 2nd Int. Res. Conference”, Fritz, et al. eds., New York, p.4463-4469 (1974)): […]
(§2) 2. Other inhibition data (Ki>>[E]o), the Ki is calculated from using the equations for a competitive inhibitor: [formula]
Human plasma plasmin activity was determined by using Tosyl-Gly-Pro-Lys-pNA in 100 mM Tris-HCl, pH 7.4, 100 mM NaCl, 0.05% Triton X-100 (See Lottenberg, et al., Meth. Enzymol. 80, 341-361 (1981)).
The inhibition constant (Ki) of the test compounds against each proteolytic enzyme was determined according to Zitnik et al., Biochem. Biophys. […]

Human lung tryptase = target: T2, Human lung tryptase; assay: Human lung tryptase inhibition, chromogenic GPR-pNA substrate; type: biochemical
T2 construct: Human lung tryptase purchased from Cortex Biochem (San Leandro, Calif.) was purified further on a Superdex 200 gel-filtration column
Experimental: as §1
1. The inhibition constant, Ki is calculated from individual data points using the equation for a tight-binding inhibitor (See Beith, “Proteinase Inhibitors-Proceedings of 2nd Int. Res. Conference”, Fritz, et al. eds., New York, p.4463-4469 (1974)):
vi/vo=[((Ki′+[I]+[E]o)^2−4[I]o[E]o)^½(Ki′+[I]o−[E]o)]/2[E]o
where Ki′ is apparent inhibition constant; vi and vo are the inhibited and uninhibited rates, respectively; [I]o and [E]o are the total concentrations of inhibitor and enzyme, respectively.
[note: [E]o is determined by active site titration of enzyme]
The Ki values are obtained by correcting Ki ′ values for the effect of substrate concentration according to: [formula]
as §2
IC50 is determined by fitting the individual inhibition data point to Sigmoid or four-parameter curve-fit equations.
Human lung tryptase purchased from Cortex Biochem (San Leandro, Calif.) was purified further on a Superdex 200 gel-filtration column. The active-site concentration of the enzyme was determined by spectrophotometric titration with 4-nitrophenyl 4′-guanidinobenzoate according to Schwartz, et al., J. Immunol., 114, 2304-2311 (1990). Tryptase activity was measured according to the procedures of Schwartz, et al., J. Biol. Chem., 261, 7372-7379 (1986) (See also, Schwartz, L. B., Methods In Enzymology, 244, 88 (1994)) with minor modifications, using Tosyl-Gly-Pro-Arg-p-nitroanilide (“GPR-pNA”, Sigma Chemical Co., St. Louis, Mo., T-1637) as a chromogenic substrate. The reaction was performed in 50 mM Tris-HCl, pH 8.0, containing 150 mM NaCl and 0.02% Triton X-100 at 37° C. in Costar ultra-low cluster 96-well microtiter plates (Costar Corning Corp., Cambridge, Mass.). The amount of pNA produced by tryptase was determined by measuring the change in absorbance at 405 nm on a SpectraMAX 340 plate reader (Molecular devices, Sunnyvale, Calif.). The Km for the substrate was determined by Lineweaver-Burk analysis from initial velocities of substrate hydrolysis. The inhibition assay was carried out in a total volume of 200 μL. Tryptase (30 μL-final concentration 1 nM) was incubated with various concentrations of sample compound (50 μL) to be tested in the above assay buffer for 5 min. The reaction was started by the addition of substrate GPR-pNA (40 μL-final concentration 320 μM), and the residual activity was measured after 15 min. of incubation. The inhibition constant, Ki, was determined by fitting the inhibition data to a two-site competitive binding equation using data analysis program GraphPad PRISM (GraphPad Software, Inc., San Diego, Calif.).
The inhibition constant (Ki) of the test compounds against each proteolytic enzyme was determined according to Zitnik et al., Biochem. Biophys. Res. Commun. 232, 687-697 (1997)).

T1 sequence (P00747 581-810 limits assumed): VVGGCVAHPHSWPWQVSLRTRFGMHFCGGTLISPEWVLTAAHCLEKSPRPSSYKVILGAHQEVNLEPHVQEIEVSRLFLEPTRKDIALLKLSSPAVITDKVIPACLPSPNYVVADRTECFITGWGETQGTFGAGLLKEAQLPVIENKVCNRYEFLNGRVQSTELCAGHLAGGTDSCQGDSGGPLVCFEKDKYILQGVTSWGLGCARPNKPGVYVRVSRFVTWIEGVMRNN
T1 sequence (P00747 97-580 partner limits assumed): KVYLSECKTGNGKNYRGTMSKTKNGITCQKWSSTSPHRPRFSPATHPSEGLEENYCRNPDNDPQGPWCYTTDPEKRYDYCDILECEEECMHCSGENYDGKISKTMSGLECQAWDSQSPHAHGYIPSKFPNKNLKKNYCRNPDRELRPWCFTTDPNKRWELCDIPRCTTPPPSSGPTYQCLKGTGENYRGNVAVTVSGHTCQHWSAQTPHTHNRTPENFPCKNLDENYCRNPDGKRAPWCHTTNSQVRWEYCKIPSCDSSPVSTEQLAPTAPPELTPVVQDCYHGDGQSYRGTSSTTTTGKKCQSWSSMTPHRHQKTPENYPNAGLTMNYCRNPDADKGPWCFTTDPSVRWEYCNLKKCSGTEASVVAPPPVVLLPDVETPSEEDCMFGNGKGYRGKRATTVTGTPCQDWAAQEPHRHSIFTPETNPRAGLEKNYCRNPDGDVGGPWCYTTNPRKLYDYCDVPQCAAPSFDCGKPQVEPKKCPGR

Ki (Human plasma plasmin): 2700 nM
Ki (Human lung tryptase; the 5th table, unit inferred): 41 nM
Ki (Human lung tryptase; tryptase 1 nM, GPR-pNA 320 μM, 50 mM Tris-HCl pH 8.0, 37° C.): 41 nM
Compound: Cc1cc2cc(CNC(=O)Cc3cc4cc(C(=N)N)ccc4s3)ccc2[nH]1 [drawing 17 Benzthiophene 5-carboxamidine n=1]
